Values quoted from earlier work in US11878910B2, “Ph-based structural change of water soluble carbon nanoparticles for encapsulation and release of therapeutic agents in biological systems” (SINON THERAPEUTICS INC., priority 2015, dated 2024).

For C1=Cc2nc1c(-c1ccccc1)c1nc(c(-c3ccccc3)c3ccc([nH]3)c(-c3ccccc3)c3ccc([nH]3)c2-c2ccccc2)C=C1 [TPP, tetraphenylporphyrin], the solubility in water is given as “insoluble”.
